For assay [1], the system named is MCF-7 and MDA-MB-231 cell lines. The following applies: 30 μM. As to the method:
The procedure of treatment was as follows. After trypsinization the cells, 400,000 cells of MCF-7, MDA-MB-231 human mammary carcinoma, PC3 human prostate carcinoma or Ishikawa human endometrium tumour each were passed into Petri dishes of 10 cm in diameter. Starting from the day following transfer, the cells were treated with the substances to be tested in solution prepared with the nutrient medium during the exponential growth phase. The cultures were treated with 1 to 50 μM (calculated for the total volume of the culture) of MI-1544 GnRH antagonist, MI-1892 chicken GnRH antagonist or SJ-1004 GnRH antagonist analogues as well as synthetic lamprey GnRH-III hormone in every two days and the cell count was determined on the 7th day.

In a further assay the test system is MDA-MB-231 xenograft. In words: In vivo antitumour effect on MDA-MB-231 xenograft. On the set-up: species or system immunosuppressed CBA/Ca mice. As to the method:
The immunosuppression of mice was carried out by using the method of Steel et al. (1978).
CBA/Ca female mice of about 6 weeks old were thymectomized and then, after one week, they were irradiated with 60Co (whole body irradiation; the lethal dose is 9.5 Gray). Within 24 hours 3 to 5×10^5 myelocytes were injected to the animals. Beneath the skin of the immunosuppressed mice 2×10^7 tumour cells or, in the case of later passages, about 2 mm^3 of tumour cells or in the case of later, additional passages about 2 mm^3 of tumour pieces were implanted. […] The treatment with steroid hormone was stopped by at least one week before beginning the investigation.
Recent investigations have begun on 28 animals bearing MCF-7 xenograft .and on 28 animals bearing MDA-MB-231 xenograft. On animals bearing MCF-7 tumour the treatment was commenced in the 5th week following xeno-transplantation; the tumour volume was 205 to 225 mm^3. On animals bearing MDA-MB-231 tumour, the treatment was started in the 4th week after xeno-transplantation with a tumour volume of 140 to 150 mm^3. […] The control groups were daily treated with physiological saline s.c. (Each treated group consisted of 7 animals.)
A more recent study was started on 28 animals bearing. MDA-MB-231 xenograft. The treatment was begun in the 4th or 5th week following xenotransplantation. The tumour volume was 0.165 to 0.194 cm3. […] (For treatment of the control group, see the preceding Examples). Each group consisted of 7 animals.

Assay [2] deals with Ishikawa endometrium tumour cell culture. The experiment in a line: Inhibition of colony formation (dose-survival), Example 48. In kind it is cell-based, human. Particulars: within the dose range used (1-50 μM). An excerpt: (§1) MCF-7 human mammary carcinoma cell line was stabilized in 1973 by Soule et al. from the pleural fluid of a patient suffering from mammary carcinoma. MDA-MB-231 human mammary carcinoma cell line was isolated and stabilized by Cailleau et al. in 1974 similarly from pleural fluid. Both cell lines grow in monolayer. MCF-7 and MDA-MB-231 human mammary carcinoma cell lines are maintained in plastic flasks (Greiner), in Dulbecco-modified Eagle-MEM (DMEM, GIBCO) liquid nutrient medium containing 10% of fetal calf serum. MCF-7 cell line is estradiol receptor (ER)-positive containing proteins specifically binding GnRH. Thus, it represents, a useful model system for investigating the direct effect of GnRH mediated by the GnRH receptor. Being ER-negative and GnRH receptor-positive, MDA-MB-231 cell line is similarly suitable to study the direct effect of GnRH. PC3 human prostate carcinoma cell line was stabilized in cell culture by Kaighn et al. in 1979. The cells are of epithelial type and form compact colonies in clonogenic assays. The Ishikawa cell line originates from human endometrial adenocarcinoma [M. Nishida et al.: Acta Obstet. Gynecol. Jpn. 37, 1103-1111 (1985)], it is epithelial in its character and contains steroid-as well as GnRH receptors.
(§2) The examination gives accurate information about the cell-damaging effect of the substance tested as a function of varying doses. The treatment was carried out once; the colonies formed from the surviving cells were counted after 8-12 days. […] A part of the arrested cells again entered the cycle, an other part of them might be destroyed (apoptosis). […] In the case of a dose-response investigation, colonies containing less than 15 cells were not counted. 300 cells were put into each Petri dishes of 3.5 cm in diameter. The treatment was once carried out 24 hours after setting, then the colonies formed were counted after 8-12 days. The cells were treated once after 24 hours with 1-50 μM of various GnRH analogues of Examples above or with 1-50 μM of GnRH-III, respectively. The percentages of inhibition obtained on MCF-7, MDA-MB-231, PC3 and Ishikawa cells, respectively, together with the dose of the active agent used are shown in Table VIII.

Assay [3] concerns PC3 prostate tumour cell culture. Described as above. In kind it is cell-based, human. The following applies: 50 μM.
Text: as §1, §2

The subject of assay [4] is LH release from rat hypophysis. Particulars: superfusion; cited from earlier work.
Another assay deals with ovulation of female rats. Particulars: prolonged treatment for three cycles, even in high doses; cited from earlier work.
Assay [5] concerns MCF-7 human mammary carcinoma cell line. The experiment in a line: Inhibition of colony formation (dose-survival), Example 48. In kind it is cell-based. Particulars: 50 μM.
The subject of a further assay is MCF-7 cells. In words: Inhibition of cell division (cell count), Example 49. In kind it is cell-based, human. Particulars: MCF-7 (2x); 30 μM. Here is the method:
After being treated with trypsin, 300,000 each of MCF-7, MDA-MB-231, PC3 or Ishikawa cells, respectively, were passed into Petri dishes of 10 cm in diameter. Starting from the day following the setting, the cells were treated with 1-50 μM of the GnRH analogue in the exponential growth phase. During the experiment lasting for 5 days, the cells were treated in every two days with the peptide hormone dissolved in the nutrient medium, then the cell count was determined on the sixth day.

The mark [6] stands for this setting: 1 × 100 μg daily s.c., week 6 (Table V).

Take `NCCCC[C@H](NC(=O)[C@H](Cc1c[nH]c2ccccc12)NC(=O)[C@H](CC(=O)O)NC(=O)[C@H](Cc1c[nH]cn1)NC(=O)[C@H](CO)NC(=O)[C@H](Cc1c[nH]c2ccccc12)NC(=O)[C@H](Cc1c[nH]cn1)NC(=O)[C@@H]1CCC(=O)N1)C(=O)N1CCC[C@H]1C(=O)NCC(N)=O` [GnRH-III, reference compound]: the “Inhibition of cell proliferation” value in assay [1] is recorded as 40-39%. In addition, the “Effect on the rate of tumour growth” value with MDA-MB-231 xenograft (100 μg daily s.c.) is recorded as “did not inhibit the rate of tumour growth”. Also, the “Tumour volume as control (%)” value in the assay with MDA-MB-231 xenograft (1 × 100 μg daily s.c., week 4) is reported as 85%; in the assay on MDA-MB-231 xenograft (1 × 100 μg daily s.c., week 6), 85%; with MDA-MB-231 xenograft (setting [6]), 85%. The same compound came in with an Inhibition % in the assay with MDA-MB-231 xenograft (setting [6]) of 15%. For the same compound, the “Inhibition of colony formation” value in assay [2] was “did not inhibit”. Further, in assay [3], the “% Inhibition of colony formation” value is listed as 21%. Also, in assay [4], the “LH-releasing effect compared with human GnRH” value is given as “about thousand times weaker”. The Inhibition of ovulation entry in the assay on ovulation of female rats is recorded as “did not inhibit the ovulation”.

For the compound “Ac-D-Trp1,3,D-Cpa2,{Lys[n-poly(N-vinyl pyrrolidone-co-maleic acid)-]}5,[a-Asp(DEA)]6,D-Ala10-GnRH [Compound P-1892]”, in assay [5], the “% Inhibition of colony formation” value was 26%. Moreover, the “% Inhibition of cell proliferation” value in the assay with MCF-7 cells was 0%.

(Values after patent US20060189539A1, “Novel GnRH analogues with antitumour effects and pharmaceutical compositions thereof” (priority 1994, published 2006).)
